The text below walks through data of patent US7465736B2, “Azole methylidene cyanide derivatives and their use as protein kinase modulators” (Laboratoires Serono S.A., priority 2002, dated 2008).

Usually IC50 stands for the concentration at which inhibition is half-maximal.

One assay concerns the target human GSK3 β (Homo sapiens, UniProt P49841). Briefly: GSK3β in vitro assay (33P incorporation into phospho GS2 peptide, scintillation counting). Format: biochemical. As to conditions: in vitro potency on human GSK3 β. The method, then: GSK3β Assay (see Naerum et al., Bioorg. Med. Chem. Lett 12 p. 1525-1528 (2002))
In a final reaction volume of 25 μl, the protein kinase GSK3β (h) (5-10 mU) is incubated with 8 mM MOPS at a pH of 7.0, in 0.2 mM EDTA, as well as 20 μM of the peptide […](p)EDEEE (SEQ ID NO: 1; a phosphor GS2 peptide being the GSK3 substrate in this assay), 10 mM Mg Acetate and [γ-^33P-ATP] (Specific activity approx. 500 cpm/pmol, concentration as required). The reaction is initiated by the addition of Mg^2+[γ-^33P-ATP]. The test compound according to formula I is used in concentrations of 100, 25, 5, 1.25, 0.315, 0.078, 0.0195, 0.0049, 0.0012, 0.00031 μM. After incubations for 40 minutes at room temperature, the reaction is stopped by the addition of 5 μl of a 3% phosphoric acid solution. 10 μl of the reaction is then spotted onto a P30 filtermat and washed three times for 5 minutes in 50 mM phosphoric acid and once in methanol prior to drying and the degree of phosphorylation of the substrate is determined by scintillation counting.

The target of a further assay is rat JNK3 (Rattus norvegicus, UniProt P49187). Briefly: JNK3 in vitro assay (33P incorporation into biotinylated GST-c-Jun, SPA beads). Format: biochemical. As to conditions: in vitro potency on rat JNK3. The method, then:
The compounds of the present invention are inhibitors of JNKs. The phosphorylation of c-jun by JNK2 or JNK3 may be determined by monitoring the incorporation of ^33P into c-jun following the protocol below. The inhibitory activity of the compounds according to formula I, towards c-jun phosphorylation through JNK, is determined by calculating phosphorylation activity in the presence or absence of compounds according to formula I.
JNK3 and/or -2 assays are performed in 96 well MTT plates: incubation of 0.5 μg of recombinant, pre-activated GST-JNK3 or GST-JNK2 with 1 μg of recombinant, biotinylated GST-c-Jun and 2 μM ^33γ-ATP (2 nCi/μl), in the presence or absence of compounds according to formula I and in a reaction volume of 50 μl containing 50 mM Tris-HCl, pH 8.0; 10 mM MgCl2; 1 mM Dithiothreitol, and 100 μM NaVO4. The test compound according to formula I is used in concentrations of 10, 3, 033, 0.1, 0.033, 0.01, 0.0033, 0.001 μM. The incubation is performed for 120 min. at R.T and stopped upon addition of 200 μl of a solution containing 250 μg of Streptavidine-coated SPA beads (Amersham, Inc.)*, 5 mM EDTA, 0.1% Triton X-100 and 50 μM ATP, in phosphate saline buffer.
After incubation for 60 minutes at RT, beads are sedimented by centrifugation at 1500×g for 5 minutes, resuspended in 200 μl of PBS containing 5 mM EDTA, 0.1% Triton X-100 and 50 μM ATP and the radioactivity measured in a scintillation β counter, following sedimentation of the beads as described above.

Chain of human GSK3 β (P49841 whole entry): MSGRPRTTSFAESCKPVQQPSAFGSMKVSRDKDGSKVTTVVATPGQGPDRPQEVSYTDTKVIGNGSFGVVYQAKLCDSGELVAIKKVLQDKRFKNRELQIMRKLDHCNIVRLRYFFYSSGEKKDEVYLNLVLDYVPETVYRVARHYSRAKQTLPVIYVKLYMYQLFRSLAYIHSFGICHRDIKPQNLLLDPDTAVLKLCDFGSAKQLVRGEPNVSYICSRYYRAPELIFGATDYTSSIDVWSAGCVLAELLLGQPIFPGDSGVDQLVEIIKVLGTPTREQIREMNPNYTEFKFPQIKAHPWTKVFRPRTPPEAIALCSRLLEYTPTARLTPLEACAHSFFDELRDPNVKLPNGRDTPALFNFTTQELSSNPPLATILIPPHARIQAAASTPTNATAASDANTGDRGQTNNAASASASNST
Chain of rat JNK3 (P49187 whole entry): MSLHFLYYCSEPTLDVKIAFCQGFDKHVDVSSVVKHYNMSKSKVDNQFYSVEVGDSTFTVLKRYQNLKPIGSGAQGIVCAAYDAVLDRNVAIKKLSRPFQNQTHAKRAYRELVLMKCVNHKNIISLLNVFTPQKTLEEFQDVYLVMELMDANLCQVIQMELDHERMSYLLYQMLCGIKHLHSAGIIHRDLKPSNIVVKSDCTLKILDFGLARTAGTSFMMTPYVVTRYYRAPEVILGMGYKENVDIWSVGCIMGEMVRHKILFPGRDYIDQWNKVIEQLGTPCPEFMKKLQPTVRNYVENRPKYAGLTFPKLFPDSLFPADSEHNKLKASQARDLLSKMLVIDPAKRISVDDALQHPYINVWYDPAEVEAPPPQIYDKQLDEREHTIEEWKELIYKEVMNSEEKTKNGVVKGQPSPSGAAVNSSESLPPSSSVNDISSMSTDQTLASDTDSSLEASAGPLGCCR

Compound `N#C/C(=C1\NC(c2ccccc2Cl)=CS1)c1ccnc(NC2CC2)n1` [[4-(2-chlorophenyl)-1,3-thiazol-2(3H)-ylidene][2-(cyclopropylamino)pyrimidin-4-yl]acetonitrile] gave an IC50 on human GSK3 β of less than 10 µM.
Still for that read-out and setting: in the case of `CC1=CS/C(=C(/C#N)c2ccnc(N3CCC(Nc4ncccn4)CC3)n2)N1` [(4-methyl-1,3-thiazol-2(3H)-ylidene){2-[4-(pyrimidin-2-ylamino)piperidin-1-yl]pyrimidin-4-yl}acetonitrile] it was less than 10 µM.
Still for that read-out and setting: to `CN(C)c1nc(/C(C#N)=C2/NC(c3ccccc3)=CS2)nc(N2CCCC3CCCCC32)n1` (centres unmarked) [[4-(dimethylamino)-6-(octahydroquinolin-1(2H)-yl)-1,3,5-triazin-2-yl](4-phenyl-1,3-thiazol-2(3H)-ylidene)acetonitrile] belongs less than 10 µM; to `CC1=CS/C(=C(/C#N)c2cc(NCc3ccco3)ncn2)N1` [{6-[(2-furylmethyl)amino]pyrimidin-4-yl}(4-methyl-1,3-thiazol-2(3H)-ylidene)acetonitrile], less than 10 µM.
In turn, `N#C/C(=C1\NC(c2ccccc2)=CS1)c1ccnc(NCCNc2ccc(C#N)cn2)n1` [6-{[2-({4-[cyano(4-phenyl-1,3-thiazol-2(3H)-ylidene)methyl]pyrimidin-2-yl}amino)ethyl]amino}nicotinonitrile] displayed an IC50 at rat JNK3 of less than 10 µM.
As to `N#C/C(=C1\NC(C(=O)O)=CS1)c1ccnc(NCCCN2CCCC2=O)n1` [2-[cyano(2-{[3-(2-oxopyrrolidin-1-yl)propyl]amino}pyrimidin-4-yl)methylene]-2,3-dihydro-1,3-thiazole-4-carboxylic acid], the IC50 at human GSK3 β and against rat JNK3 was less than 10 µM in each case.
The compound `CC1=CS/C(=C(/C#N)c2cc(N(C)c3ccccc3)nc(NCCc3cccnc3)n2)N1` [{6-[methyl(phenyl)amino]-2-[(2-pyridin-3-ylethyl)amino]pyrimidin-4-yl}(4-methyl-1,3-thiazol-2(3H)-ylidene)acetonitrile] gave an IC50 on human GSK3 β of less than 10 µM.
Take `CCC1=CS/C(=C(/C#N)c2ccnc(NCCc3ccc(S(N)(=O)=O)cc3)n2)N1` [4-[2-({4-[cyano(4-ethyl-1,3-thiazol-2(3H)-ylidene)methyl]pyrimidin-2-yl}amino)ethyl]benzenesulfonamide]: the IC50 against human GSK3 β and against rat JNK3 was less than 10 µM throughout.
For the compound `CCC1=CS/C(=C(/C#N)c2ccnc(NC3CCN(S(C)(=O)=O)CC3)n2)N1`, the IC50 on rat JNK3 is less than 10 µM.
